Assay results from US20050090402A1, “Use of defined copolymers as adjuvants and agents in the agrotechnical domain” (priority 2001, published 2005).

Legend:
Format in all cases: in vivo
Settings in all cases: bentazone 0.125 kg/ha, no adjuvant, 100 = complete destruction, 0 = no damage
[1] = system: soybeans (Glycine max; GLXMA); assay: Herbicidal efficacy of bentazone tank mixes, greenhouse post-emergence, soybeans
Protocol: (§1) The copolymers shown in Table 1 were applied by the tank mix method together with Basagran (480 g/l bentazone). The application rate per ha was 0.125 kg of bentazone and 2, 1.0 and 0.5 kg of a.i./ha copolymer or comparative surfactant Wettol LF 700 (alcohol alkoxylate). The herbicidal effect was assessed in a greenhouse experiment. The test plants used were soybeans (Glycine max; GLXMA), Chinese hemp (Abutilon theophrasti; ABUTH), white goosefoot (Chenopodium album; CHEAL) and ladysthumb (Polygonum persicaria; POLPE). These plants were either sown separately for each species or first grown separately as seedlings and transplanted into the experimental containers a few days before the treatment. The experimental containers used were plastic pots containing loamy sand and approximately 3.0% of humus as substrate. […] The application rate for the post-emergence treatment was 0.125 kg a.i./ha bentazone and 2.0, 1.0 or 0.5 kg a.i./ha copolymer or comparative surfactant.
(§2) The test period extended over 2 to 4 weeks. During this time, the plant species were kept specifically at night-time temperatures above 14° C. and day-time temperatures between 20 and 31° C., tended, and their response to the individual treatments was evaluated.
(§3) Evaluation was done using a scale from 0 to 100. […]

[2] = system: Chinese hemp (Abutilon theophrasti; ABUTH); assay: Herbicidal efficacy of bentazone tank mixes, greenhouse post-emergence, Chinese hemp
Protocol: as §1, §2, §3

[3] = system: white goosefoot (Chenopodium album; CHEAL); assay: Herbicidal efficacy of bentazone tank mixes, greenhouse post-emergence, white goosefoot
Protocol: as §1, §2, §3

[4] = system: ladysthumb (Polygonum persicaria; POLPE); assay: Herbicidal efficacy of bentazone tank mixes, greenhouse post-emergence, ladysthumb
Protocol: as §1, §2, §3

Structure (SMILES): CC(C)N1C(=O)c2ccccc2NS1(=O)=O [Bentazone, bentazone]
- herbicidal effect GLXMA (scale 0 to 100) [1]: 0
- herbicidal effect ABUTH (scale 0 to 100) [2]: 64
- herbicidal effect CHEAL (scale 0 to 100) [3]: 9
- herbicidal effect POLPE (scale 0 to 100) [4]: 86
